{
  "source": "patent US8722897B2",
  "about": "“Metal complexes of thiourea and derivatives as metal delivering anti-cancer and anti-inflammatory agents” (priority 2010, dated 2014)",
  "key": {"[1]": {"test_system": "HeLa, human cervical epithelioid carcinoma", "assay": "Cytotoxicity assay (MTT), HeLa", "details": "read-out: Cytotoxicities (IC50), HeLa, 72 h, MTT"}, "[2]": {"test_system": "panel of cancer cell lines", "details": "Homo sapiens, read-out: half maximal inhibitory concentrations (IC50), panel of cancer cell lines"}, "[3]": {"assay": "Cytotoxicity assay (MTT), HepG2", "details": "human, HepG2 cells"}, "[4]": {"molecular_target": "T1, Glutathione reductase (GR) (Homo sapiens, UniProt P00390)", "T1 construct": "endogenous in cells; host or cells: HeLa", "T1 sequence (P00390 44-522)": "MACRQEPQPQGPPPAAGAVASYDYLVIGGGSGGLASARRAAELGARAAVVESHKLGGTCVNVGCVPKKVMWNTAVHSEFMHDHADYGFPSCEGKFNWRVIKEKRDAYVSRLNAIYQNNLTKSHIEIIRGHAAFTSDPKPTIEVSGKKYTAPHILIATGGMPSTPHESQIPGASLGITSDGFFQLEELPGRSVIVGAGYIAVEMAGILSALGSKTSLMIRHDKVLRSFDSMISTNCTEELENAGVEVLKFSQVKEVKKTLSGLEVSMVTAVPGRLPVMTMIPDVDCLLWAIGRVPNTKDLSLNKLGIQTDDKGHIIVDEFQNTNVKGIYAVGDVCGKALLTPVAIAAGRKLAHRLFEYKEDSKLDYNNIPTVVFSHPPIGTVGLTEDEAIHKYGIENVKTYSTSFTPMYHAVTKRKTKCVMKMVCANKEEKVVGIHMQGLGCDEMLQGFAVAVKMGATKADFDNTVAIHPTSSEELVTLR", "assay": "Cellular glutathione reductase activity of treated HeLa cells", "assay_type": "cell-based", "details": "one-hour treatment, up to 100 μM", "experimental": "(§1) Cells were seeded at 2×10^5/well in 6-well plates and incubated for 24 hours. The metal thiourea compounds (10^−9 to 10^−4 M) were serially diluted and added to the cells (final DMSO concentrations≦1%). After an one-hour incubation, cells were washed thrice with phosphate buffered saline and 100 μL ice-cold lysis buffer (50 mM phosphate buffer, pH 7.4, 1 mM EDTA, 0.1% Triton-X 100) were added to the cell layer. Cell lysis was carried on ice for 5 minutes and the cell lysates were collected and stored at −80° C. or assayed immediately.\nCell lysates (10 μg proteins) were added to a mixture containing 100 mM phosphate, pH 7.4, 1 mM EDTA, 1 mM GSSG and 0.2 mM NADPH. Reaction was initiated by adding DTNB (3 mM final) and the increases in O.D.412 nm were measured for 10 min. GR activities were determined by subtracting the increases in O.D.412 nm in the absence of GSSG."}, "[5]": {"assay": "Cytotoxicity assay (MTT), HeLa", "details": "human, HeLa cells"}, "[6]": {"assay": "Cytotoxicity assay (MTT), SUNE1", "details": "human, SUNE1 cells"}, "[7]": {"assay": "Cytotoxicity assay (MTT), NCI-H460", "details": "human, NCI-H460 cells"}, "[8]": {"molecular_target": "T2, thioredoxin reductase (TrxR) (Homo sapiens, UniProt Q16881)", "T2 sequence (Q16881 1-649)": "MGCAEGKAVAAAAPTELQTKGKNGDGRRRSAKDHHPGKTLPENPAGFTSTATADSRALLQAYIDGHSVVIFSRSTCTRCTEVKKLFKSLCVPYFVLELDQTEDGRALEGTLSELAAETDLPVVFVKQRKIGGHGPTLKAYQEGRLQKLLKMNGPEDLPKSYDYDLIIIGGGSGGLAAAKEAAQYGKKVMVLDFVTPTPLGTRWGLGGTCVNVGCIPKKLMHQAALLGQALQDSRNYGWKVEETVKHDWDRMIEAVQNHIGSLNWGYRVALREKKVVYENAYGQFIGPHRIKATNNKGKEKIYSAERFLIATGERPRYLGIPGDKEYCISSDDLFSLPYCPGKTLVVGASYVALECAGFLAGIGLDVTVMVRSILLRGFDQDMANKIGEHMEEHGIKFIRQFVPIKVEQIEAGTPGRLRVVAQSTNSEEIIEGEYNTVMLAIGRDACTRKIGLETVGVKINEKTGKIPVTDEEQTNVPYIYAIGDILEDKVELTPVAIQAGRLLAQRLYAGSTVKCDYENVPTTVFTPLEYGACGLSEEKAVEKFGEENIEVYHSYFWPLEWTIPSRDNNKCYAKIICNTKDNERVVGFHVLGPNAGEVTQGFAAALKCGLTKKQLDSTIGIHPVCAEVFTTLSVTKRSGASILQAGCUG", "assay": "Cellular thioredoxin reductase activity of treated HeLa cells", "assay_type": "cell-based", "details": "one-hour treatment", "experimental": "as §1, with “immediately. Cell lysates (10 μg proteins) were added to a mixture (100 μL) containing 100 mM phosphate, pH 7.4, 1 mM EDTA and 0.2 mM NADPH.” for “immediately.”"}, "[9]": {"test_system": "glutathione peroxidase (GPx)", "assay": "Cellular glutathione peroxidase activity of treated HeLa cells", "assay_type": "cell-based, human", "details": "one-hour treatment", "experimental": "as §1\nCell lysates (10 μg proteins) were added to a mixture containing 100 mM phosphate, pH 7.4, 2 mM GSH, 1 U glutathione reductase, and 0.2 mM NADPH. Reaction was initiated by adding tert-butyl hydroperoxide (300 μM) and the NADPH oxidation was measured as decreases in O.D.340 nm in 10 min. GPx activities (ΔO.D.340 nm/min) were determined by subtracting the spontaneous NADPH oxidation in the absence of tert-butyl hydroperoxide."}, "[10]": {"test_system": "SUNE1, human nasopharyngeal carcinoma"}, "[11]": {"test_system": "HepG2, human hepatocellular carcinoma"}, "[12]": {"test_system": "NCI-H460 = human lung carcinoma"}, "[13]": {"test_system": "HeLa, human cervical epithelioid carcinoma"}, "[14]": {"test_system": "NCI-H460 non-small cell lung cancer cells", "assay_type": "in vivo, mice", "experimental": "The in vivo experiment was conducted in Pearl Materia Medica Development (Shenzhen) Limited and performed with approval from the Committee on the Use of Live Animals for Teaching and Research. SPF grade four-week-old female BALB/c AnN-nu mice (nude mice, 16-18 g) were purchased. Tumor cells (5×10^6) resuspended in RPMI medium were implanted by subcutaneous injection on the right flank of the mice. When tumors were approximately 50 mm^3 in size, animals were randomly separated into 3 groups to receive treatment of twice-a-week intraperitoneal injection of 10% PET vehicle control (where 10% PET=6% polyethylene glycol 400, 3% ethanol, 1% Tween 80 and 90% PBS), complex 1 (100 mg/kg) or cyclophosphamide (30 mg/kg) for 8 times. After 28 days, the mice were sacrificed and the tumors were isolated and weighted."}},
  "note": "Like-named read-outs stand apart in the source and are kept apart here.",
  "data": [
    {"smiles": "O=[N+]([O-])[O-].[Ag+]", "note": "[AgNO3, reference compound]", "values": [
      {"measurement": "IC50", "setting": "[1]", "result": "32.1 ± 1.2", "unit": "µM"}
    ]},
    {"smiles": "COc1ccc(N2CCN(c3ccc(OC)cc3)C2=S)cc1", "note": "[TU, 1,3-bis(4-methoxyphenyl)imidazolidine-2-thione, reference compound]", "values": [
      {"measurement": "IC50", "setting": "[2]", "result": "> 100", "unit": "µM"},
      {"measurement": "IC50 at 72 h", "setting": "[3]", "result": "> 100", "unit": "µM"},
      {"measurement": "effect on cellular GR activity, added up to 100 μM", "setting": "[4]", "result": "not affected"},
      {"measurement": "IC50 at 72 h", "setting": "[5]", "result": "> 100", "unit": "µM"},
      {"measurement": "IC50 at 72 h", "setting": "[6]", "result": "> 100", "unit": "µM"},
      {"measurement": "IC50 at 72 h", "setting": "[7]", "result": "> 100", "unit": "µM"},
      {"measurement": "effect on cellular TrxR activity, added up to 100 μM", "setting": "[8]", "result": "not affected"},
      {"measurement": "effect on cellular GPx activity, added up to 100 μM", "setting": "[9]", "result": "not affected"}
    ]},
    {"smiles": "F[P-](F)(F)(F)(F)F.NC(N)=S.NC(N)=S.[Cu+]", "note": "[complex 3, [Cu(TU)2]PF6]", "values": [
      {"measurement": "IC50", "setting": "[10]", "result": "8.5 ± 1", "unit": "µM"},
      {"measurement": "effect on cellular GR activity, added up to 100 μM", "setting": "[4]", "result": "not affected"},
      {"measurement": "IC50", "setting": "[11]", "result": "13 ± 0.9", "unit": "µM"},
      {"measurement": "IC50", "setting": "[12]", "result": "11.2 ± 0.9", "unit": "µM"},
      {"measurement": "effect on cellular TrxR activity, added up to 100 μM", "setting": "[8]", "result": "not affected"},
      {"measurement": "IC50", "setting": "[13]", "result": "12.7 ± 0.9", "unit": "µM"},
      {"measurement": "effect on cellular GPx activity, added up to 100 μM", "setting": "[9]", "result": "not affected"}
    ]},
    {"smiles": "O=P1(N(CCCl)CCCl)NCCCO1", "note": "(stereo not drawn) [cyclophosphamide]", "values": [
      {"measurement": "Tumor volume, Day 13", "setting": "[14]; Day 13, 30 mg/kg i.p. twice a week", "result": "325.041 ± 170.053", "unit": "mm^3"},
      {"measurement": "Tumor volume, Day 17", "setting": "[14]; Day 17, 30 mg/kg i.p. twice a week", "result": "639.465 ± 422.362", "unit": "mm^3"},
      {"measurement": "Tumor volume, Day 21", "setting": "[14]; Day 21, 30 mg/kg i.p. twice a week", "result": "1032.258 ± 594.026", "unit": "mm^3"},
      {"measurement": "Tumor volume, Day 25", "setting": "[14]; Day 25, 30 mg/kg i.p. twice a week", "result": "1474.100 ± 900.357", "unit": "mm^3"},
      {"measurement": "Tumor volume, Day 29", "setting": "[14]; Day 29, 30 mg/kg i.p. twice a week", "result": "1438.735 ± 845.815", "unit": "mm^3"}
    ]}
  ]
}
